1 compound from ChEMBL document CHEMBL5463728, “Data for DCP probe BAY-6096” (2023) can be followed below.

The target of the assay is 3',5'-cyclic-AMP phosphodiesterase 4D (Homo sapiens) (UniProt Q08499). In words: Inhibition of Phosphodiesterase PDE4D2 at 10 µM in the Eurofins-Panlabs enzyme assay (Eurofins_assay_154420). On the set-up: substrate with concentration. Particulars: Compound concentration 10.0 uM.

Structures are written as SMILES.

3',5'-cyclic-AMP phosphodiesterase 4D (Homo sapiens), sequence (Q08499 whole entry): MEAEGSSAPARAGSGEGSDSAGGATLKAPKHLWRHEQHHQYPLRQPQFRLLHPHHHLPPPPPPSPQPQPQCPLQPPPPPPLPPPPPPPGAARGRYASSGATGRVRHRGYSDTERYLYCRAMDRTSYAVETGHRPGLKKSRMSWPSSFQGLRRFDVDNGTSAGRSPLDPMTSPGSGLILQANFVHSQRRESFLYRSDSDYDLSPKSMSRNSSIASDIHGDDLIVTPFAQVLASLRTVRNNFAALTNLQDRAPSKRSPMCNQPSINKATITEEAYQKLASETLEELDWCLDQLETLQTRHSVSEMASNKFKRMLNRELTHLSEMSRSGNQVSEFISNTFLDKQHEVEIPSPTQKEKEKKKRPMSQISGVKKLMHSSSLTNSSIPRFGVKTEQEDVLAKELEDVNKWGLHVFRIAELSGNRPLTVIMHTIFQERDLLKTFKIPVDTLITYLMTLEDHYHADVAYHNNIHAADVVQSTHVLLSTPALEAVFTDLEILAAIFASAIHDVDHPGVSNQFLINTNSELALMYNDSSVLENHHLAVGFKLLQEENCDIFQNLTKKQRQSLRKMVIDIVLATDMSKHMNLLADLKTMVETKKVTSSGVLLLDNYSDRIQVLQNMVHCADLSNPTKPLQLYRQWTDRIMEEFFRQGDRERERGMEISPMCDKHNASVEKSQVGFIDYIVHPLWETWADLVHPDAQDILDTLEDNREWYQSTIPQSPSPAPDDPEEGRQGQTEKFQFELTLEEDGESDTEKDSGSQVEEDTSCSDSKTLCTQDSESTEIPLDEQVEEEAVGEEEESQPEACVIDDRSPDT

On to `CNc1cc[n+](CCNC(=O)c2ccn3c(-c4c(C)noc4C)cnc3c2)cc1`, for which the inhibition was -0.5%.

Broadly, the inhibition is the relative decrease from the control value, in per cent.
